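Interpolation was linear, between the two tested concentrations surrounding the appropriate level; five concentrations were tested over 48 hours in 96-well plates. GI50: concentration for 50% inhibition of growth.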 Calls of active or inactive are those of the source. Cut-off read from the data, not from the text of the source: active = GI50 up to about 1.1 µM and inactive = higher.
Columns and labels:
Experiment in all cases: DTP human tumour cell line panel, 48 h
[1] = system: A498
[2] = system: DLD-1
[3] = system: HCT-15
[4] = system: HL-60
[5] = system: HOP-62
[6] = system: KM12
[7] = system: M14
[8] = system: NCI-H226
[9] = system: NCI-H460
[10] = system: OVCAR-8
[11] = system: RPMI-8226
[12] = system: RXF 393
[13] = system: SF-268
[14] = system: SK-MEL-5
[15] = system: SNB-75
[16] = system: SR
[17] = system: T47D
[18] = system: UO-31
[19] = system: MDA-MB-435
[20] = system: NCI/ADR-RES

Cc1ccc(S(=O)(=O)N2c3ccccc3[C@H]3CCC=C[C@H]32)cc1
GI50 [1]: 6.4 µM (inactive) | GI50 [2]: 13.3 µM (inactive) | GI50 [3]: 4.59 µM | GI50 [4]: 4.58 µM (inactive) | GI50 [5]: 7.46 µM (inactive) | GI50 [6]: 3.83 µM (inactive) | GI50 [7]: 5.5 µM (inactive) | GI50 [8]: 10.5 µM (inactive) | GI50 [9]: 6.56 µM (inactive) | GI50 [10]: 20.5 µM (inactive) | GI50 [11]: 6.55 µM (inactive) | GI50 [12]: 3.61 µM (inactive) | GI50 [13]: 10.9 µM (inactive) | GI50 [14]: 7.4 µM (inactive) | GI50 [15]: 5.05 µM (inactive) | GI50 [16]: 3.03 µM (inactive) | GI50 [17]: 4.97 µM (inactive) | GI50 [18]: 5 µM (inactive)

CCOc1ccccc1NC(=O)CCc1nnc2s/c(=C\CCc3ccccc3)c(=O)n12
GI50 [1]: > 100 µM (inactive) | GI50 [2]: > 100 µM (inactive) | GI50 [3]: > 100 µM | GI50 [4]: > 100 µM (inactive) | GI50 [5]: > 100 µM (inactive) | GI50 [6]: > 100 µM (inactive) | GI50 [7]: > 100 µM (inactive) | GI50 [8]: > 100 µM (inactive) | GI50 [9]: > 100 µM (inactive) | GI50 [10]: > 100 µM (inactive) | GI50 [11]: > 100 µM (inactive) | GI50 [12]: > 100 µM (inactive) | GI50 [13]: > 100 µM (inactive) | GI50 [14]: > 100 µM (inactive) | GI50 [15]: > 100 µM (inactive) | GI50 [16]: > 100 µM (inactive) | GI50 [18]: > 100 µM (inactive)

CN1C(=O)N(C)C(N2CCCC2)c2c1nc1ccccn1c2=O (centres undefined)
GI50 [1]: 34.8 µM (inactive) | GI50 [2]: 35.3 µM (inactive) | GI50 [3]: 56.6 µM | GI50 [4]: 36.8 µM (inactive) | GI50 [5]: > 100 µM (inactive) | GI50 [6]: > 100 µM (inactive) | GI50 [7]: 68.9 µM (inactive) | GI50 [8]: > 100 µM (inactive) | GI50 [9]: 76.4 µM (inactive) | GI50 [10]: > 100 µM (inactive) | GI50 [11]: 88.7 µM (inactive) | GI50 [12]: 49 µM (inactive) | GI50 [13]: > 100 µM (inactive) | GI50 [15]: 45.9 µM (inactive) | GI50 [16]: 34.8 µM (inactive) | GI50 [18]: > 100 µM (inactive)

COCN1COCN/C1=N\C#N
GI50 [1]: > 100 µM (inactive) | GI50 [2]: > 100 µM (inactive) | GI50 [3]: 51.8 µM | GI50 [4]: > 100 µM (inactive) | GI50 [5]: > 100 µM (inactive) | GI50 [6]: > 100 µM (inactive) | GI50 [7]: > 100 µM (inactive) | GI50 [8]: > 100 µM (inactive) | GI50 [9]: > 100 µM (inactive) | GI50 [10]: > 100 µM (inactive) | GI50 [11]: > 100 µM (inactive) | GI50 [12]: 83.2 µM (inactive) | GI50 [13]: > 100 µM (inactive) | GI50 [14]: > 100 µM (inactive) | GI50 [15]: > 100 µM (inactive) | GI50 [16]: 20.9 µM (inactive) | GI50 [18]: > 100 µM (inactive)

CC(CCCOC(c1ccccc1)(c1ccccc1)c1ccccc1)OC(=O)Nc1cc([N+](=O)[O-])cc([N+](=O)[O-])c1 (centres undefined)
GI50 [1]: 22.8 µM (inactive) | GI50 [2]: 30.1 µM (inactive) | GI50 [3]: 32.4 µM | GI50 [4]: 31.6 µM (inactive) | GI50 [5]: 27.4 µM (inactive) | GI50 [6]: 32.1 µM (inactive) | GI50 [7]: 34.9 µM (inactive) | GI50 [9]: 24.5 µM (inactive) | GI50 [10]: 33.5 µM (inactive) | GI50 [11]: 32.5 µM (inactive) | GI50 [12]: 43.3 µM (inactive) | GI50 [13]: 35.5 µM (inactive) | GI50 [14]: 22.8 µM (inactive) | GI50 [15]: 21.3 µM (inactive) | GI50 [16]: 38.5 µM (inactive) | GI50 [18]: 49 µM (inactive)

CC(=O)OC[C@]1(C)CCCC2(C)C1CCC1C=C(C)[C@H]3CCC12C3 (some centres undefined)
GI50 [2]: 99.3 µM (inactive) | GI50 [3]: 48.3 µM | GI50 [4]: > 100 µM (inactive) | GI50 [5]: 50.9 µM (inactive) | GI50 [6]: 52.6 µM (inactive) | GI50 [7]: 35.2 µM (inactive) | GI50 [8]: > 100 µM (inactive) | GI50 [9]: 33.7 µM (inactive) | GI50 [10]: > 100 µM (inactive) | GI50 [11]: 62.7 µM (inactive) | GI50 [12]: 44.4 µM (inactive) | GI50 [13]: 37.8 µM (inactive) | GI50 [14]: > 100 µM (inactive) | GI50 [15]: 31.8 µM (inactive) | GI50 [16]: > 100 µM (inactive) | GI50 [18]: > 100 µM (inactive)

CC(=O)OC1C/C(C)=C/[C@H](O)CC(C)/C=C/[C@@]2(C)CCC(C(C)(C)O)C12 (some centres undefined)
GI50 [1]: > 100 µM (inactive) | GI50 [2]: > 100 µM (inactive) | GI50 [3]: > 100 µM | GI50 [4]: > 100 µM (inactive) | GI50 [5]: > 100 µM (inactive) | GI50 [6]: > 100 µM (inactive) | GI50 [7]: > 100 µM (inactive) | GI50 [8]: > 100 µM (inactive) | GI50 [9]: > 100 µM (inactive) | GI50 [10]: > 100 µM (inactive) | GI50 [11]: > 100 µM (inactive) | GI50 [12]: > 100 µM (inactive) | GI50 [13]: > 100 µM (inactive) | GI50 [14]: > 100 µM (inactive) | GI50 [15]: > 100 µM (inactive) | GI50 [16]: > 100 µM (inactive) | GI50 [18]: > 100 µM (inactive)

CC[C@]1(O)C[C@H]2CN(CCc3c([nH]c4ccccc34)[C@@](C(=O)OC)(c3cc4c(cc3OC)N(C)[C@H]3[C@@](O)(C(=O)OC)[C@H](OC(C)=O)[C@]5(CC)C=CCN6CC[C@]43[C@@H]65)C2)C1
GI50 [1]: 0.00252 µM (active) | GI50 [2]: 0.00433 µM (active) | GI50 [3]: 0.0241 µM | GI50 [4]: 0.00042 µM (active) | GI50 [5]: 0.000832 µM (active) | GI50 [6]: 0.000493 µM (active) | GI50 [7]: 0.000762 µM (active) | GI50 [19]: 0.000386 µM (active) | GI50 [8]: 0.00115 µM (active) | GI50 [9]: 0.000629 µM (active) | GI50 [20]: 0.115 µM (active) | GI50 [10]: 0.00129 µM (active) | GI50 [11]: 0.000679 µM (active) | GI50 [13]: 0.000986 µM (active) | GI50 [14]: 0.000354 µM (active) | GI50 [16]: 0.000425 µM (active) | GI50 [18]: 0.143 µM (active)
